{"source": "paper PMC5658662", "about": "(Biochemistry, 2017)", "key": {"cytochrome P450 OleT [1]": {"molecular_target": "T1, cytochrome P450 OleT (Jeotgalicoccus sp. ATCC 8456, UniProt E9NSU2)", "details": "for maximal high-spin conversion: UV-vis titration, low- to high-spin conversion"}, "cytochrome P450 OleT [2]": {"molecular_target": "T1, cytochrome P450 OleT", "type": "biochemical", "details": "for % metabolized: 5 μM OleT, 500 μM fatty acid; for % metabolized / product distribution (%) alcohols: slow H2O2 addition; for product distribution (%) 1-alkene: determined from subtraction of product alcohols from the total FA metabolized; for alcohol regiospecificity α: share of alcohols hydroxylated at Cα; for alcohol regiospecificity β: share of alcohols hydroxylated at Cβ; for product distribution (%) alcohols: share of total product"}, "cytochrome P450 OleT [3]": {"system": "cytochrome P450 OleT", "type": "biochemical, Jeotgalicoccus sp. ATCC 8456"}, "cytochrome P450 OleT [4]": {"molecular_target": "T1, cytochrome P450 OleT", "assay": "Guaiacol oxidation to tetraguaiacol by fatty acid-activated OleT", "type": "biochemical", "details": "DA-d19 compared with protiated DA as decoy"}, "cytochrome P450 OleT [5]": {"molecular_target": "T1, cytochrome P450 OleT", "type": "biochemical"}, "cytochrome P450 OleT [6]": {"molecular_target": "T1, cytochrome P450 OleT", "assay": "Stopped flow transient kinetics of OleT:fatty acid complexes with H2O2", "type": "biochemical"}, "cytochrome P450 OleT [7]": {"molecular_target": "T1, cytochrome P450 OleT", "details": "ref [29], cited from earlier work"}, "cytochrome P450 OleT [8]": {"molecular_target": "T1, cytochrome P450 OleT", "details": "in vitro; ref [2]–[4]; cited from earlier work"}, "cytochrome P450 OleT [9]": {"molecular_target": "T1, cytochrome P450 OleT", "details": "read-out: dissociation constant reported for EA; reported value; ref [2],[13]; cited from earlier work"}, "[10]": {"details": "5 μM OleT, 200 mM KPi pH 7.5, 200 mM NaCl, absorbance changes at 392 and 417 nm"}, "[11]": {"details": "in the presence of norcarane, 10 mM H2O2, 440 nm, 4 °C"}, "[12]": {"details": "in the absence of norcarane, 10 mM H2O2, 440 nm, 4 °C"}}, "note": "Where “and” joins values, the source holds several entries; their conditions need not be identical. Equal values may be shown once. Read-outs that look alike come from different tables or passages of the source. Marks after values point to notes of the source that are not given here.", "data": [{"smiles": "CCCCCC(=O)O", "note": "[C6:0]", "values": [{"measurement": "Kd", "setting": "cytochrome P450 OleT [1]; [10]", "value": "164 ± 15", "unit": "µM"}, {"measurement": "maximal high-spin conversion", "setting": "cytochrome P450 OleT [1]", "value": 19, "unit": "%"}]}, {"smiles": "CCCCCCCC(=O)O", "note": "[C8:0]", "values": [{"measurement": "% metabolized", "setting": "cytochrome P450 OleT [2]", "value": 100, "unit": "%"}, {"measurement": "product distribution (%) 1-alkene", "setting": "cytochrome P450 OleT [2]", "value": "88.4 ± 0.4 ^b %"}, {"measurement": "alcohol regiospecificity α", "setting": "cytochrome P450 OleT [2]", "value": "11.3 ± 2.3", "unit": "% α"}, {"measurement": "alcohol regiospecificity β", "setting": "cytochrome P450 OleT [2]", "value": "89.0 ± 5.3", "unit": "% β"}, {"measurement": "product distribution (%) alcohols", "setting": "cytochrome P450 OleT [2]", "value": "11.6 ± 0.8", "unit": "%"}, {"measurement": "Kd", "setting": "cytochrome P450 OleT [1]; [10]", "value": "134 ± 11", "unit": "µM"}, {"measurement": "maximal high-spin conversion", "setting": "cytochrome P450 OleT [1]", "value": 25, "unit": "%"}]}, {"smiles": "CCCCCCCCCC(=O)O", "note": "[C10:0, decanoic acid]", "values": [{"measurement": "% metabolized", "setting": "cytochrome P450 OleT [2]", "value": 100, "unit": "%"}, {"measurement": "product distribution (%) 1-alkene", "setting": "cytochrome P450 OleT [2]", "value": "90.0 ± 0.8 ^b %"}, {"measurement": "alcohol regiospecificity β", "setting": "cytochrome P450 OleT [2]", "value": 100, "unit": "% β"}, {"measurement": "product distribution (%) alcohols", "setting": "cytochrome P450 OleT [2]", "value": "10.0 ± 0.8", "unit": "%"}, {"measurement": "Kd", "setting": "cytochrome P450 OleT [1]", "value": "25 ± 8", "unit": "µM"}, {"measurement": "maximal high-spin conversion", "setting": "cytochrome P450 OleT [1]", "value": 36, "unit": "%"}]}, {"smiles": "CCCCCCCCCCCC(=O)O", "note": "[C12:0, lauric acid]", "values": [{"measurement": "product distribution (%) 1-alkene", "setting": "cytochrome P450 OleT [3]; determined from direct quantitation", "value": "61.4 ± 7.6 ^a %"}, {"measurement": "product distribution (%) alcohols", "setting": "cytochrome P450 OleT [3]; slow H2O2 addition, share of total product", "value": "38.6 ± 7.6", "unit": "%"}, {"measurement": "% metabolized", "setting": "cytochrome P450 OleT [2]", "value": "98.3 ± 0.2", "unit": "%"}, {"measurement": "alcohol regiospecificity α", "setting": "cytochrome P450 OleT [2]", "value": "7.0 ± 1.3", "unit": "% α"}, {"measurement": "alcohol regiospecificity α", "setting": "cytochrome P450 OleT [2]; listed as LA", "value": 7, "unit": "%"}, {"measurement": "alcohol regiospecificity β", "setting": "cytochrome P450 OleT [2]", "value": "71.5 ± 15.5", "unit": "% β"}, {"measurement": "alcohol regiospecificity γ", "setting": "cytochrome P450 OleT [2]; share of alcohols hydroxylated at Cγ", "value": "21.5 ± 4.4", "unit": "% γ"}, {"measurement": "Kd", "setting": "cytochrome P450 OleT [1]", "value": "2.8 ± 0.4", "unit": "µM"}, {"measurement": "maximal high-spin conversion", "setting": "cytochrome P450 OleT [1]", "value": 61, "unit": "%"}]}, {"smiles": "[2H]C([2H])([2H])C([2H])([2H])C([2H])([2H])C([2H])([2H])C([2H])([2H])C([2H])([2H])C([2H])([2H])C([2H])([2H])C([2H])([2H])C(=O)O", "note": "[DA-d19, perdeuterated decanoic acid]", "values": [{"measurement": "improvement of guaiacol oxidation rate", "setting": "cytochrome P450 OleT [4]", "value": "approximately 5 fold"}, {"measurement": "product yields for radical clock substrates by decoy fatty acid", "setting": "cytochrome P450 OleT [5]; comparison of decoy fatty acids", "value": "highest"}, {"measurement": "Ole-I decay rate constant", "setting": "cytochrome P450 OleT [6]; asymptote of RRT1 vs H2O2 plot, 4 °C", "value": "~ 60 s^−1"}, {"measurement": "Ole-II decay rate constant", "setting": "cytochrome P450 OleT [6]; independent of H2O2, 4 °C", "value": "~10", "unit": "s⁻¹"}]}, {"smiles": "CCCCCCCCCCCCCCCCCCCC(=O)O", "note": "[EA, eicosanoic acid]", "values": [{"measurement": "Ole-II decay", "setting": "cytochrome P450 OleT [7]; at 5 °C, decarboxylation of EA", "value": "~ 10 s^−1"}, {"measurement": "substrate 2H KIE (kH/kD) for the decay of Ole-I", "setting": "cytochrome P450 OleT [7]", "value": "> 8"}, {"measurement": "chemoselectivity for 1-nonadecene production", "setting": "cytochrome P450 OleT [8]", "value": "≥ 95", "unit": "%"}, {"measurement": "Kd", "setting": "cytochrome P450 OleT [9]", "value": "< 1", "unit": "µM"}]}, {"smiles": "[2H]C([2H])([2H])C([2H])([2H])C([2H])([2H])C([2H])([2H])C([2H])([2H])C([2H])([2H])C([2H])([2H])C([2H])([2H])C([2H])([2H])C([2H])([2H])C([2H])([2H])C([2H])([2H])C([2H])([2H])C([2H])([2H])C([2H])([2H])C([2H])([2H])C([2H])([2H])C([2H])([2H])C([2H])([2H])C(=O)O", "note": "[EA-d39, perdeuterated eicosanoic acid]", "values": [{"measurement": "Ole-II decay rate constant (RRT2)", "setting": "cytochrome P450 OleT [6]; [11]", "value": "10 ± 2", "unit": "s⁻¹"}, {"measurement": "Ole-II formation (Ole-I decay) rate constant (RRT1)", "setting": "cytochrome P450 OleT [6]; [11]", "value": "83 ± 3", "unit": "s⁻¹"}]}, {"smiles": "[2H]C([2H])([2H])C([2H])([2H])C([2H])([2H])C([2H])([2H])C([2H])([2H])C([2H])([2H])C([2H])([2H])C([2H])([2H])C([2H])([2H])C([2H])([2H])C([2H])([2H])C(=O)O", "note": "[LA-d23]", "values": [{"measurement": "Ole-II decay rate constant (RRT2)", "setting": "cytochrome P450 OleT [6]; [12]", "value": "10.4 ± 0.5", "unit": "s⁻¹"}, {"measurement": "Ole-II formation (RRT1)", "setting": "cytochrome P450 OleT [6]; [12]", "value": "105 ± 10", "unit": "s⁻¹"}, {"measurement": "Ole-II decay rate constant (RRT2)", "setting": "cytochrome P450 OleT [6]; [11]", "value": "12.5 ± 0.6", "unit": "s⁻¹"}, {"measurement": "Ole-II formation (Ole-I decay) rate constant (RRT1)", "setting": "cytochrome P450 OleT [6]; [11]", "value": "66 ± 3", "unit": "s⁻¹"}]}, {"smiles": "CC1CC1c1ccccc1", "note": "(centres unmarked) [methylcyclopropane]", "values": [{"measurement": "product yield (%) ring-closed", "setting": "cytochrome P450 OleT [5]; in the presence of DA-d19", "value": "41.9% and 40.1%"}, {"measurement": "product yield (%) ring-opened", "setting": "cytochrome P450 OleT [5]; in the presence of DA-d19", "value": "58.1% and 59.9%"}, {"measurement": "radical lifetime", "setting": "cytochrome P450 OleT [5]; per trial, from product ratio and krearr = 3 × 10^11 s−1", "value": 2.4, "unit": "ps"}]}, {"smiles": "C1CCC2CC2C1", "note": "(centres unmarked) [norcarane, bicyclo[4.1.0]heptane]", "values": [{"measurement": "radical lifetime", "setting": "cytochrome P450 OleT [5]; from averaged ratio of rearranged products to norcaranol (G + E)", "value": "~ 35 ps"}, {"measurement": "product yield (%) F", "setting": "cytochrome P450 OleT [5]; in the presence of DA-d19", "value": 1.9, "unit": "%"}, {"measurement": "product yield (%) I", "setting": "cytochrome P450 OleT [5]; in the presence of DA-d19", "value": 0.55, "unit": "%"}, {"measurement": "product yield (%) C", "setting": "cytochrome P450 OleT [5]; in the presence of DA-d19, 4-hydroxy-2-norcarene", "value": 3.8, "unit": "%"}, {"measurement": "product yield (%) cation", "setting": "cytochrome P450 OleT [5]; in the presence of DA-d19, cation-rearranged product 3-cycloheptenol (A)", "value": "2.6% and 1.4%"}, {"measurement": "product yield (%) E", "setting": "cytochrome P450 OleT [5]; in the presence of DA-d19, endo-2-norcaranol", "value": "51.5% and 47.6%"}, {"measurement": "product yield (%) G", "setting": "cytochrome P450 OleT [5]; in the presence of DA-d19, exo-2-norcaranol", "value": "38.9% and 33.4%"}, {"measurement": "product yield (%) radical", "setting": "cytochrome P450 OleT [5]; in the presence of DA-d19, radical-rearranged product 3-hydroxymethylcyclohexene (D)", "value": "0.75% and 0.47%"}, {"measurement": "radical lifetime", "setting": "cytochrome P450 OleT [5]; per trial, from product ratio and krearr = 2 × 10^8 s−1", "value": "42 ps and 29 ps"}]}]}
